Among the data in PubChem BioAssay AID1259411 (Chemical Carcinogenesis Research Information System (CCRIS), 2018) are carcinogen call values, retold here.

The source made the active and inactive calls. The rule behind the calls is not given here.

The data set concerns rodent carcinogenicity bioassays, tumor incidence. The data set can be described thus: CCRIS carcinogenicity studies. In short, it runs like this:
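Archive of carcinogenicity, mutagenicity, tumor promotion and tumor inhibition results drawn from journals, NCI reports and other sources, expert-reviewed; covers 1985-2011 and is no longer updated.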

`C=CC(=C)CCC=C(C)C`: the carcinogen call by setting is: (Species: Mouse, Strain/Sex: B6C3F1 / Female (50/Group), Route: Oral, Dose: 0, 0.25, 0.5, 1 g/kg in corn oil, by gavage, 5 d/wk for 104-105 wk, Dose: 0, 0.25, 0.5, 1 g/kg in corn oil, by gavage, 5 d/wk for 104-105 wk) “inactive; negative. (authors describe results as equivocal based on incidences of hepatoce”; (Species: Mouse, Strain/Sex: B6C3F1 / Male (50/Group), Route: Oral, Dose: 0, 0.25, 0.5, 1 g/kg in corn oil, by gavage, 5 d/wk for 104-105 wk, Dose: 0, 0.25, 0.5, 1 g/kg in corn oil, by gavage, 5 d/wk for 104-105 wk, Tumor Site: Type of Lesion: Liver: hepatocellular adenoma (26/50, 41/50, 43/50), hepatocellular carcinoma (14/50, 20/50, 28/50), hepatocellular aden, Tumor Site: Type of Lesion: Liver: hepatocellular adenoma (26/50, 41/50, 43/50), hepatocellular carcinoma (14/50, 20/50, 28/50), hepatocellular aden) “active; positive (authors describe as clear evidence)”; (Species: Rat, Strain/Sex: F344/N / Female (50/Group), Route: Oral, Dose: 0, 0.25, 0.5, 1 g/kg in corn oil, by gavage, 5 d/wk for 105 wk, Dose: 0, 0.25, 0.5, 1 g/kg in corn oil, by gavage, 5 d/wk for 105 wk) “inactive; negative. (authors describe findings as equivocal based on renal tubule adenoma”; (Species: Rat, Strain/Sex: F344/N / Male (50/Group), Route: Oral, Dose: 0, 0.25, 0.5, 1 g/kg in corn oil, by gavage, 5 d/wk for 105 wk, Dose: 0, 0.25, 0.5, 1 g/kg in corn oil, by gavage, 5 d/wk for 105 wk, Tumor Site: Type of Lesion: Kidney: renal tubule adenoma (standard evaluation - 0/50, 4/50, 8/50, standard and extended evaluations combined - 0/50) “active; positive (authors describe as clear evidence)”.
Turning to `CCCCOC(=O)[C@@H](C)Oc1ccc(Oc2ccc(C#N)cc2F)cc1`, the carcinogen call (Species: Mouse, Strain/Sex: ICR (Crj:CD-1)/(Male (52/group), Route: Oral, Dose: 0, 3, 10, 100 ppm (0; 0.31; 0.99; 10.1 mg/kg/day) of 97.1% pure cyhalofop-butyl in diet for 78 wk, Dose: 0, 3, 10, 100 ppm (0; 0.31; 0.99; 10.1 mg/kg/day) of 97.1% pure cyhalofop-butyl in diet for 78 wk) is “inactive; negative” and the carcinogen call (Species: Mouse, Strain/Sex: ICR (Crj:CD-1)/Female (52/group), Route: Oral, Dose: 0, 3, 10, 100 ppm (0; 0.29; 0.99; 10.3 mg/kg/day) of 97.1% pure cyhalofop-butyl in diet for 78 wk, Dose: 0, 3, 10, 100 ppm (0; 0.29; 0.99; 10.3 mg/kg/day) of 97.1% pure cyhalofop-butyl in diet for 78 wk) was “inactive; negative”.
`[Cl][Fe]([Cl])[Cl]`: the carcinogen call is, setting by setting: (Species: RAT, Strain/Sex: F344/FEMALE, Route: ORAL, Dose: 0, 0.25, 0.5% IN DRINKING WATER FOR 104 WK (STUDY DURATION: 112 WK), Dose: 0, 0.25, 0.5% IN DRINKING WATER FOR 104 WK (STUDY DURATION: 112 WK)) “inactive; negative”; (Species: RAT, Strain/Sex: F344/MALE, Route: ORAL, Dose: 0, 0.25, 0.5% IN DRINKING WATER FOR 104 WK (STUDY DURATION: 112 WK), Dose: 0, 0.25, 0.5% IN DRINKING WATER FOR 104 WK (STUDY DURATION: 112 WK)) “inactive; negative”.
As to `CNC(=O)Oc1ccccc1OC(C)C`, the carcinogen call runs as follows: (Species: MOUSE, Strain/Sex: SWISS/FEMALE, Route: DERMAL, Dose: 0, 100 MG/KG BW IN 100 µL ACETONE 3/WK FOR 52 WK (STUDY DURATION: 52 WK)) “inactive; negative”; (Species: MOUSE, Strain/Sex: SWISS/MALE, Route: DERMAL, Dose: 0, 100 MG/KG BW IN 100 µL ACETONE 3/WK FOR 52 WK (STUDY DURATION: 52 WK)) “inactive; negative”.
On to `O.O.O.O.O.O.O.O=S(=O)(O)O.[Co+2]`, for which the carcinogen call is “active; positive” (Species: MOUSE, Strain/Sex: B6C3F1/FEMALE, Route: INHALATION, Dose: 0, 0.3, 1, 3 MG/M3 6HR/D 5 D/WK FOR 105 WK (STUDY DURATION: 105 WK), Dose: 0, 0.3, 1, 3 MG/M3 6HR/D 5 D/WK FOR 105 WK (STUDY DURATION: 105 WK), Tumor Site: Type of Lesion: LUNG: ALVEOLAR/BRONCHIOLAR ADENOMA, ALVEOLAR/BRONCHIOLAR CARCINOMA); “active; positive” (Species: MOUSE, Strain/Sex: B6C3F1/MALE, Route: INHALATION, Dose: 0, 0.3, 1, 3 MG/M3 6HR/D 5 D/WK FOR 105 WK (STUDY DURATION: 105 WK), Dose: 0, 0.3, 1, 3 MG/M3 6HR/D 5 D/WK FOR 105 WK (STUDY DURATION: 105 WK), Tumor Site: Type of Lesion: LUNG: ALVEOLAR/BRONCHIOLAR ADENOMA, ALVEOLAR/BRONCHIOLAR CARCINOMA); “active; positive” (Species: RAT, Strain/Sex: F344/FEMALE, Route: INHALATION, Dose: 0, 0.3, 1, 3 MG/M3 6HR/D 5 D/WK FOR 105 WK (STUDY DURATION: 105 WK), Dose: 0, 0.3, 1, 3 MG/M3 6HR/D 5 D/WK FOR 105 WK (STUDY DURATION: 105 WK), Tumor Site: Type of Lesion: LUNG: ALVEOLAR/BRONCHIOLAR ADENOMA, ALVEOLAR/BRONCHIOLAR CARCINOMA, ADRENAL MEDULLA: BENIGN, COMPLEX, OR MALIGNANT PHEOC); “active; positive” (Species: RAT, Strain/Sex: F344/N/MALE, Route: INHALATION, Dose: 0, 0.3, 1, 3 MG/M3 6HR/D 5 D/WK FOR 105 WK (STUDY DURATION: 105 WK), Dose: 0, 0.3, 1, 3 MG/M3 6HR/D 5 D/WK FOR 105 WK (STUDY DURATION: 105 WK), Tumor Site: Type of Lesion: LUNG: ALVEOLAR/BRONCHIOLAR ADENOMA).
In the case of `Cc1cccc(Nc2cc(Cl)nc(SCC(=O)NCCO)n2)c1C`, the carcinogen call was “active; positive” (Species: MOUSE, Strain/Sex: STRAIN-CS/FEMALE, Route: ORAL, Dose: 0.2% IN DIET FOR 19 MO, Tumor Site: Type of Lesion: LIVER: HEPATOCELLULAR CARCINOMA) and “active; positive” (Species: RAT, Strain/Sex: F344/MALE, Route: ORAL, Dose: 0.05, 0.2% IN DIET FOR 19 MO (LOW DOSE) OR 16 MO (HIGH DOSE), Tumor Site: Type of Lesion: LIVER: HEPATOCELLULAR CARCINOMA).
In the case of `O=c1[nH]c(=O)n([C@H]2C[C@H](O)[C@@H](CO)O2)cc1Br`, the carcinogen call is, setting by setting: (Species: RAT, Strain/Sex: LIO/FEMALE, Route: SUBCUTANEOUS, Dose: 0, 3.2 MG ON DAY 1 OR ON DAYS 1 AND 3 OR ON DAYS 1, 3, 7, AND 21 FOLLOWING BIRTH FOR TOTAL DOSES OF 3.2, 6.4, OR 12.8 MG, Tumor Site: Type of Lesion: THYROID: ADENOMA, KIDNEY: MESENCHYMAL TUMORS) “active; positive”; (Species: RAT, Strain/Sex: LIO/MALE, Route: SUBCUTANEOUS, Dose: 0, 3.2 MG ON DAY 1 OR ON DAYS 1 AND 3 OR ON DAYS 1, 3, 7, AND 21 FOLLOWING BIRTH FOR TOTAL DOSES OF 3.2, 6.4, OR 12.8 MG, Tumor Site: Type of Lesion: TESTES: LEYDIGOMA) “active; positive”.
